# Measured values published in PubChem BioAssay AID328 (DTP/NCI, 2004).
# Values joined by “and” are separate entries in the source; they are usually repeats but may differ in a detail not shown here. Identical values can stand only once. Toxic doses and inconclusive results are not listed.
# Test system: BDF1 mice, P388 leukemia ip, median survival T/C
# Experiment: NCI In Vivo Anticancer Drug Screen. Data for tumor model P388 Leukemia (intraperitoneal) in B6D2F1 (BDF1) mice
# Conditions: endpoint: median survival time, higher = longer survival
# Outline: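 Read-out is survival of treated animals expressed relative to the vehicle group, as a T/C ratio.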
# [1] = dose: 50.0 mg/kg/injection, schedule: Q01DX005 (ip), vehicle: saline with Tween-80
# [2] = dose: 100.0 mg/kg/injection, schedule: Q01DX005 (ip), vehicle: saline with Tween-80
# [3] = dose: 200.0 mg/kg/injection, schedule: Q01DX005 (ip), vehicle: saline with Tween-80
compound,measurement,setting,value
CC1CC=C(C2CC(C)CC(N(C)C)C2=N)CC1 (centres undefined),T/C,"dose: 12.5 mg/kg/injection, schedule: Q01DX009 (sc), vehicle: olive oil, sesame oil, peanut oil",104 % of control
same,T/C,"dose: 25.0 mg/kg/injection, schedule: Q01DX009 (sc), vehicle: olive oil, sesame oil, peanut oil",109 % of control
same,T/C,"dose: 50.0 mg/kg/injection, schedule: Q01DX009 (sc), vehicle: olive oil, sesame oil, peanut oil",113 % of control
same,T/C,"dose: 100.0 mg/kg/injection, schedule: Q04DX003 (sc), vehicle: olive oil, sesame oil, peanut oil",91 % of control
same,T/C,"dose: 200.0 mg/kg/injection, schedule: Q04DX003 (sc), vehicle: olive oil, sesame oil, peanut oil",104 % of control
same,T/C,"dose: 400.0 mg/kg/injection, schedule: Q04DX003 (sc), vehicle: olive oil, sesame oil, peanut oil",116 % of control
C1CC[N-]CC1.C1CC[N-]CC1.CS(C)=O.[Cl][Rh]([Cl])[Cl],T/C,"dose: 8.3 mg/kg/injection, schedule: Q01DX009 (ip), vehicle: saline",150 % of control
same,T/C,"dose: 12.5 mg/kg/injection, schedule: Q01DX009 (ip), vehicle: saline",150 % of control and 155 % of control
same,T/C,"dose: 18.7 mg/kg/injection, schedule: Q01DX009 (ip), vehicle: saline",150 % of control
CC(C)(C)c1cc(Br)c(N)c(C(O)(C(F)(F)F)C(F)(F)F)c1,T/C,"dose: 100.0 mg/kg/injection, schedule: Q01DX001 (ip), vehicle: saline with Tween-80",105 % of control
same,T/C,"dose: 200.0 mg/kg/injection, schedule: Q01DX001 (ip), vehicle: saline with Tween-80",109 % of control
same,T/C,"dose: 400.0 mg/kg/injection, schedule: Q01DX001 (ip), vehicle: saline with Tween-80",111 % of control
COc1ccc2c(c1)CCC1(C)C2=CC(=O)/C1=C\[O-].COc1ccc2c(c1)CCC1(C)C2=CC(=O)/C1=C\[O-].[Cu+2] (centres undefined),T/C,"dose: 25.0 mg/kg/injection, schedule: Q01DX009 (ip), vehicle: saline with Tween-80",95 % of control
same,T/C,"dose: 50.0 mg/kg/injection, schedule: Q01DX009 (ip), vehicle: saline with Tween-80",95 % of control
same,T/C,"dose: 100.0 mg/kg/injection, schedule: Q01DX009 (ip), vehicle: saline with Tween-80",95 % of control
CCCSc1ncnc2nc[nH]c12,T/C,"dose: 31.3 mg/kg/injection, schedule: Q01DX010 (ip), vehicle: saline",95 % of control and 120 % of control
same,T/C,"dose: 62.5 mg/kg/injection, schedule: Q01DX010 (ip), vehicle: saline",100 % of control and 105 % of control
same,T/C,"dose: 125.0 mg/kg/injection, schedule: Q01DX010 (ip), vehicle: saline",95 % of control and 100 % of control
C1=C(c2ccccc2)C(c2ccccc2)C(c2ccccc2)C/C1=N/OCCN1CCCC1 (centres undefined),T/C,"dose: 6.0 mg/kg/injection, schedule: Q01DX009 (ip), vehicle: saline with Tween-80",108 % of control
same,T/C,"dose: 6.0 mg/kg/injection, schedule: Q04DX003 (ip), vehicle: saline with Tween-80",118 % of control
same,T/C,"dose: 8.0 mg/kg/injection, schedule: Q01DX009 (ip), vehicle: saline with Tween-80",100 % of control
same,T/C,"dose: 12.0 mg/kg/injection, schedule: Q01DX009 (ip), vehicle: saline with Tween-80",115 % of control
same,T/C,"dose: 18.0 mg/kg/injection, schedule: Q01DX009 (ip), vehicle: saline with Tween-80",107 % of control
same,T/C,"dose: 25.0 mg/kg/injection, schedule: Q04DX003 (ip), vehicle: saline with Tween-80",100 % of control
COC(=O)c1cc(=O)nc(N/N=C/c2ccc(OC)cc2)s1,T/C,[1],102 % of control
same,T/C,[2],102 % of control
same,T/C,[3],102 % of control
CC(C)(C)C1CNP(=O)(c2ccccc2)OC1 (centres undefined),T/C,[1],99 % of control
same,T/C,[2],101 % of control
same,T/C,[3],100 % of control
Cc1ccc(CNc2ccc(I)cc2)cc1,T/C,"dose: 100.0 mg/kg/injection, schedule: Q04DX003 (ip), vehicle: saline with Tween-80",105 % of control
same,T/C,"dose: 200.0 mg/kg/injection, schedule: Q04DX003 (ip), vehicle: saline with Tween-80",95 % of control
same,T/C,"dose: 400.0 mg/kg/injection, schedule: Q04DX003 (ip), vehicle: saline with Tween-80",105 % of control
CCCCC1(CC)COC(C)(Cc2ccccc2)OC1 (centres undefined),T/C,"dose: 100.0 mg/kg/injection, schedule: Q01DX009 (ip), vehicle: saline",100 % of control
same,T/C,"dose: 100.0 mg/kg/injection, schedule: Q04DX003 (ip), vehicle: saline",104 % of control
same,T/C,"dose: 200.0 mg/kg/injection, schedule: Q01DX009 (ip), vehicle: saline",100 % of control
same,T/C,"dose: 200.0 mg/kg/injection, schedule: Q04DX003 (ip), vehicle: saline",100 % of control
same,T/C,"dose: 400.0 mg/kg/injection, schedule: Q01DX009 (ip), vehicle: saline",90 % of control
same,T/C,"dose: 400.0 mg/kg/injection, schedule: Q04DX003 (ip), vehicle: saline",104 % of control
Cc1cnc(C#N)c(-n2ccnc2)n1,T/C,"dose: 12.5 mg/kg/injection, schedule: Q01DX009 (ip), vehicle: water",92 % of control
same,T/C,"dose: 25.0 mg/kg/injection, schedule: Q01DX009 (ip), vehicle: water",100 % of control
same,T/C,"dose: 50.0 mg/kg/injection, schedule: Q01DX009 (ip), vehicle: water",95 % of control
same,T/C,"dose: 100.0 mg/kg/injection, schedule: Q01DX009 (ip), vehicle: water",100 % of control
same,T/C,"dose: 200.0 mg/kg/injection, schedule: Q01DX009 (ip), vehicle: water",101 % of control
[Cl][Hg][CH]1CCCC2OC(C(Cl)(Cl)Cl)OC21 (centres undefined),T/C,"dose: 0.2 mg/kg/injection, schedule: Q01DX001 (ip), vehicle: saline with Tween-80",111 % of control
same,T/C,"dose: 0.4 mg/kg/injection, schedule: Q01DX001 (ip), vehicle: saline with Tween-80",109 % of control
same,T/C,"dose: 0.78 mg/kg/injection, schedule: Q01DX001 (ip), vehicle: saline with Tween-80",101 % of control
same,T/C,"dose: 0.8 mg/kg/injection, schedule: Q01DX001 (ip), vehicle: saline with Tween-80",109 % of control
same,T/C,"dose: 1.6 mg/kg/injection, schedule: Q01DX001 (ip), vehicle: saline with Tween-80",116 % of control
